This passage reports IC50 results from patent US9550763B2, “Heterocyclic ring and carbocyclic derivative” (Shionogi & Co., Ltd., priority 2012, dated 2017).

The experiment concerns the target human P2X3 receptor (Homo sapiens (Human), UniProt P56373). Briefly: Evaluation of human P2X3 receptor inhibitory activity (Test Example 1-2, FLIPR 384, 384-well, 150 nM ATP). The class given is cell-based. The settings on record: human P2X3 receptor in C6BU-1 cells; Test Example 1-2 (compounds I-301 to I-483); read-out: P2X3 IC50. The protocol:
Stably expressing cell line (C6BU-1 cell transfected with human P2X3 receptor gene (GenBank accession number Y07683) was used. The cells were seeded in a 384-well microtiter plate at a concentration of 3000 cells/well and cultured in the medium (7.0% fetal bovine serum, 7.0% horse serum, 1% antibiotic and antifungal in DMEM) for one day at 37° C. under 5% carbon dioxide atmosphere. The medium was replaced with 4 μM Fluo-3-AM solution (20 mM HEPES, […], 5.27 mM KCl, 0.9 mM MgCl2, 1.26 mM CaCl2, 5.6 mM D-glucose, 2.5 mM probenecid, 0.5% BSA, and 0.04% Pluronic F-127, pH 7.5) and incubated at 37° C. under 5% dioxide carbon atmosphere for one hour. The plate was washed with washing buffer (20 mM HEPES, 137 mM NaCl, 5.27 mM KCl, 0.9 mM MgCl2, 1.26 mM CaCl2, 5.6 mM D-glucose, 2.5 mM probenecid, pH7.5), and each well was added with 20 μL of this buffer. The plate was placed in High-Throughput Screening System FLIPR 384 (Molecular Device Co.). Measurement of fluorescence intensity by FLIPR 384 was started, and 20 μL of DMSO solutions containing different concentrations of the test compound as prepared by dilution with dilution buffer (20 mM HEPES, 137 mM NaCl, 5.27 mM KCl, 0.9 mM MgCl2, 1.26 mM CaCl2, 5.6 mM D-glucose, 2.5 mM probenecid, 0.1% Pluronic F-127, pH 7.5) were dispensed to each well through the built-in automatic dispenser. Five minutes after, 150 nM ATP solution (25 μL) prepared by dilution with the dilution buffer was dispensed through the built-in automatic dispenser, and the measurement of fluorescence intensity was continued for 4 min. For each well, the specific maximum fluorescence intensity was calculated as the ratio of the maximum fluorescence intensity after addition of the ATP solution to the fluorescence intensity at the starting of the measurement. The 50% inhibitory concentration (IC50) was calculated under the assumption that the specific maximum fluorescence intensity without test compound is 0% inhibition and that the specific maximum fluorescence intensity when the dilution buffer was added in place of ATP solution is 100% inhibition, to evaluate the inhibitory activity of the test compound. The specific maximum fluorescence intensity and IC50 were calculated using Spotfire (Science & Technology Systems, Inc.)
The data of the compounds I-001 to I-300 are the results by the method mentioned in Test Example 1-1, and the data of the compounds I-301 to I-483 are the results by the method mentioned in Test Example 1-2.

The IC50 is the concentration needed to halve the response being measured.

Sequence of human P2X3 receptor (P56373 whole entry): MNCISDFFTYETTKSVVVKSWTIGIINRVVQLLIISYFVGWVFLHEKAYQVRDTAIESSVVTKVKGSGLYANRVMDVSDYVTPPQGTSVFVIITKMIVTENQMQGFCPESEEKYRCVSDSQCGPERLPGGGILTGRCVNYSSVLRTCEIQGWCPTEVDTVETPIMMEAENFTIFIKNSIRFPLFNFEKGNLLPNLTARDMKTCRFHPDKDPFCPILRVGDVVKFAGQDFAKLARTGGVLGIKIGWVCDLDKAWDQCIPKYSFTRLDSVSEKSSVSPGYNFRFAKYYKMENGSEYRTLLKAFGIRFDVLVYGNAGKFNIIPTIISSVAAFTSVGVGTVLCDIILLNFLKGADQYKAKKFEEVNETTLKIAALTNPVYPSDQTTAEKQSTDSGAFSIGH

Take `O=C(NCC(=O)N1CCCCC1)c1cn(Cc2ccc(Cl)cc2)c(Nc2ccc(Oc3cccc(F)n3)cc2)nc1=O` [Compound I-382]: the IC50 came out at 9 nM.
For `O=C(NC1CCCOC1)c1cn(Cc2ccc(Cl)cc2)c(Nc2ccc(Oc3cccc(F)n3)cc2)nc1=O` (stereo not drawn) [Compound I-383] the value was 13 nM; for `O=C(NCc1ncco1)c1cn(Cc2ccc(Cl)cc2)c(Nc2ccc(Oc3cccc(F)n3)cc2)nc1=O` [Compound I-384], 60 nM; for `CC1(NC(=O)c2cn(Cc3ccc(Cl)cc3)c(Nc3ccc(Oc4cccc(F)n4)cc3)nc2=O)CCOCC1` [Compound I-385], 16 nM.
For `O=C(NC[C@@H]1CCCO1)c1cn(Cc2ccc(Cl)cc2)c(Nc2ccc(Oc3cccc(F)n3)cc2)nc1=O` [Compound I-386] the value was 15 nM; for `O=C(NC[C@H]1CCCO1)c1cn(Cc2ccc(Cl)cc2)c(Nc2ccc(Oc3cccc(F)n3)cc2)nc1=O` [Compound I-387], 14 nM; for `O=C(NCC1CCCCO1)c1cn(Cc2ccc(Cl)cc2)c(Nc2ccc(Oc3cccc(F)n3)cc2)nc1=O` (stereo not drawn) [Compound I-388], 29 nM.
The result for `O=C(NC1CCNC1=O)c1cn(Cc2ccc(Cl)cc2)c(Nc2ccc(Oc3cccc(F)n3)cc2)nc1=O` (stereo not drawn) [Compound I-389] reads 10 nM.
For the compound `O=C(NC1(CO)CCOCC1)c1cn(Cc2ccc(Cl)cc2)c(Nc2ccc(Oc3cccc(F)n3)cc2)nc1=O` [Compound I-390], the IC50 stood at 59 nM.
For `Cn1nccc1NC(=O)c1cn(Cc2ccc(Cl)cc2)c(Nc2ccc(Oc3cccc(F)n3)cc2)nc1=O` [Compound I-391] the value was 30 nM.
For `Cc1nc(CNC(=O)c2cn(Cc3ccc(Cl)cc3)c(Nc3ccc(Oc4cccc(F)n4)cc3)nc2=O)no1` [Compound I-392] the value was 128 nM; for `O=C(NCC1CCCC1)c1cn(Cc2ccc(Cl)cc2)c(Nc2ccc(Oc3cccc(F)n3)cc2)nc1=O` [Compound I-393], 110 nM.
With `O=C(N[C@H]1COC[C@@H]1O)c1cn(Cc2ccc(Cl)cc2)c(Nc2ccc(Oc3cccc(F)n3)cc2)nc1=O` [Compound I-394], the IC50 is 11 nM.
Take `O=C(Nc1cn[nH]c1)c1cn(Cc2ccc(Cl)cc2)c(Nc2ccc(Oc3cccc(F)n3)cc2)nc1=O` [Compound I-395]: the IC50 was found to be 22 nM.
For `O=C(NCC1CCOC1)c1cn(Cc2ccc(Cl)cc2)c(Nc2ccc(Oc3cccc(F)n3)cc2)nc1=O` (stereo not drawn) [Compound I-396] the value was 25 nM; for `O=C(Nc1cnoc1)c1cn(Cc2ccc(Cl)cc2)c(Nc2ccc(Oc3cccc(F)n3)cc2)nc1=O` [Compound I-397], 56 nM.
Take `O=C(N[C@@H]1CCOC1)c1cn(Cc2ccc(Cl)cc2)c(Nc2ccc(Oc3cccc(F)n3)cc2)nc1=O` [Compound I-398]: the IC50 was found to be 22 nM.
The result for `O=c1c(-c2nnc(CO)o2)c[nH]/c(=N\c2ccc(Oc3ccon3)cc2)n1Cc1ccc(Cl)cc1` [Compound I-399] reads 36 nM; that for `CC(C)c1c[nH]/c(=N\c2ccc(Oc3ccc(C(=O)O)cn3)cc2)n(Cc2ccc(Cl)cc2)c1=O` [Compound I-400], 16 nM.
The result for `CC(C)c1c[nH]/c(=N\c2ccc(Oc3cncc(C(=O)O)c3)cc2)n(Cc2ccc(Cl)cc2)c1=O` [Compound I-401] reads 12 nM; that for `O=C(NC1CCOCC1)c1cn(Cc2ccc(F)cc2F)c(Nc2ccc(Oc3cccc(F)n3)cc2)nc1=O` [Compound I-402], 9 nM.
The result for `COc1cn(Cc2ccc(Cl)cc2)c(Nc2ccc(Oc3cccc(C(N)=O)n3)cc2)nc1=O` [Compound I-403] reads 243 nM; that for `COc1cn(Cc2ccc(Cl)cc2)c(Nc2ccc(Oc3cccc(C(=O)O)n3)cc2)nc1=O` [Compound I-404], 102 nM.
In the case of `Cc1nc(Nc2cc(=O)n(CC(F)(F)C(=O)O)c(=O)n2Cc2ccc(Cl)cc2)ccc1Oc1ccc(F)cn1` [Compound I-405], the IC50 stood at 5 nM.
For `C#CCNC(=O)c1c[nH]/c(=N\c2ccc(Oc3cccc(F)n3)cc2)n(Cc2ccc(Cl)cc2)c1=O` [Compound I-406] the value was 8 nM; for `O=C(NCC1CC1)c1c[nH]/c(=N\c2ccc(Oc3cccc(F)n3)cc2)n(Cc2ccc(Cl)cc2)c1=O` [Compound I-407], 68 nM; for `N#Cc1cccc(Oc2ccc(/N=c3\[nH]cc(-c4ccccc4)c(=O)n3Cc3ccc(Cl)cc3)cc2)n1` [Compound I-408, 1-(4-chlorobenzyl)-2-[4-(6-cyano-2-pyridyloxy)phenylamino]-5-phenylpyrimidin-6(1H)-one], 407 nM.
`CC(C)c1c[nH]/c(=N\c2ccc(Oc3ccnc(C(=O)O)c3)cc2)n(Cc2ccc(Cl)cc2)c1=O` [Compound I-409]: the IC50 was 24 nM.
In the case of `CCOC(=O)c1cnc(Oc2ccc(/N=c3\[nH]cc(C(C)C)c(=O)n3Cc3ccc(Cl)cc3)cc2)s1` [Compound I-410], the IC50 was found to be 626 nM.
The result for `CCC(=O)Nc1c[nH]/c(=N\c2ccc(Oc3ccc(C(F)(F)F)nn3)cc2)n(Cc2ccc(Cl)cc2)c1=O` [Compound I-411] reads 10 nM.
The result for `CC(C)c1c[nH]/c(=N\c2ccc(Oc3ncc(C(=O)O)s3)cc2)n(Cc2ccc(Cl)cc2)c1=O` [Compound I-412] reads 9 nM; that for `Cc1c[nH]c2cc(Nc3ncc(NC(=O)C4CCOCC4)c(=O)n3Cc3ccc(Cl)cc3)ccc12` [Compound I-413], 897 nM; that for `Cc1c[nH]c2ccc(Nc3ncc(NC(=O)C4CCOCC4)c(=O)n3Cc3ccc(Cl)cc3)cc12` [Compound I-414], 392 nM.
The result for `CCc1c[nH]c2cc(Nc3ncc(NC(=O)C4CCOCC4)c(=O)n3Cc3ccc(Cl)cc3)ccc12` [Compound I-416] reads 406 nM; that for `O=C(NCCCO)c1cn(Cc2ccc(Cl)cc2)c(Nc2ccc(Oc3cccc(F)n3)cc2)nc1=O` [Compound I-418], 45 nM.
In the case of `O=C(NCc1ccoc1)c1cn(Cc2ccc(Cl)cc2)c(Nc2ccc(Oc3cccc(F)n3)cc2)nc1=O` [Compound I-419], the IC50 turned out to be 55 nM.
With `Cc1cc(CNC(=O)c2cn(Cc3ccc(Cl)cc3)c(Nc3ccc(Oc4cccc(F)n4)cc3)nc2=O)no1` [Compound I-420], the IC50 turned out to be 88 nM.
The result for `O=C(Nc1cc[nH]n1)c1cn(Cc2ccc(Cl)cc2)c(Nc2ccc(Oc3cccc(F)n3)cc2)nc1=O` [Compound I-421] reads 17 nM; that for `O=C(O)c1cccc(Oc2ccc(/N=c3\[nH]cc(-c4ccccc4)c(=O)n3Cc3ccc(Cl)cc3)cc2)n1` [Compound I-422], 3 nM; that for `NNC(=O)c1c[nH]/c(=N\c2ccc(Oc3ccon3)cc2)n(Cc2ccc(Cl)cc2)c1=O` [Compound I-423], 81 nM.
For `N#CCNC(=O)c1c[nH]/c(=N\c2ccc(Oc3ccon3)cc2)n(Cc2ccc(Cl)cc2)c1=O` [Compound I-425] the value was 21 nM; for `N#CCNC(=O)c1c[nH]/c(=N\c2ccc(Oc3ccc(F)cn3)cc2)n(Cc2ccc(Cl)cc2)c1=O` [Compound I-426], 15 nM.
With `C#CCNC(=O)c1c[nH]/c(=N\c2ccc(Oc3ccc(F)cn3)cc2)n(Cc2ccc(Cl)cc2)c1=O` [Compound I-427], the IC50 turned out to be 5 nM.
`CCOc1cn(Cc2ccc(Cl)cc2)c(Nc2ccc(Oc3cccc(C#N)n3)cc2)nc1=O` [Compound I-429]: the IC50 worked out at 441 nM.
For `CNC(=O)CNC(=O)c1cn(Cc2ccc(Cl)cc2)c(Nc2ccc(Oc3cccc(F)n3)cc2)nc1=O` [Compound I-430] the value was 83 nM.
